Assay results reported in article PMC6017328, “Tetrasubstituted Imidazolium Salts as Potent Antiparasitic Agents against African and American Trypanosomiases” (Molecules : A Journal of Synthetic Chemistry and Natural …, 2018).
Where two headings read alike, the source gives them in different places.

Columns and labels:
[1] = cited from earlier work
[2] = system: Bloodstream form T. brucei (strain 221); assay: T. brucei culturing and evaluation of trypanocidal activity (resazurin); assay type: cell-based; conditions: Trypanosoma brucei; for EC50: concentration reducing parasite growth by 50%, triplicate; for EC90: concentration reducing parasite growth by 90%
Experimental: Bloodstream form T. brucei (strain 221) were grown as described previously. […] Logarithmically growing T. brucei were diluted to 2.5 × 10^4 mL^−1 and aliquoted into 96-well plates. Then, compounds were added at a range of concentrations and the plates incubated at 37 °C. Each compound was tested in triplicate. Resazurin was added after 48 h and the plates incubated for a further 16 h. The plates were then read in a Spectramax plate reader. Results were analyzed using GraphPad Prism.

[3] = system: T. cruzi epimastigotes (CL Brener stain); assay: T. cruzi culturing and evaluation of trypanocidal activity (resazurin); assay type: cell-based; conditions: Trypanosoma cruzi; for EC90: epimastigotes, CL Brener, growth reduced by 90%
Experimental: Activity was determined using 96-well plate assays. Cultures were diluted to 2.5 × 10^5 mL^−1, aliquoted in triplicate at a range of compound concentrations, and incubated for 4 days. Resazurin was added and the plates incubated for a further 3 days, then read in a Spectramax plate reader as outlined above.

L6 rat myoblast cells = assay: Cytotoxic activity against rat skeletal myoblast L6 cells; assay type: cell-based; conditions: 144 h; cytotoxicity, L6 rat myoblasts, 6 days
Experimental: Cytotoxicity was assessed using microtiter plates following a previously described protocol. Briefly, L6 cells were seeded at 1 × 10^4 mL^−1 in 200 μL of growth medium at different compound concentrations. The plates were incubated for 6 days at 37 °C and then 20 μL resazurin was added to each well. After a further 8 h incubation, fluorescence was determined using a Spectramax plate reader.

[4] = PAMPA-BBB assay (brain permeability); assay type: in vitro ADME, porcine; conditions: for Papp: pig, PAMPA, PBS:EtOH 70:30, n=3 ± S.D. in Table S5, read-out: PAMPA-BBB permeability (Pe), experimental value; for CNS Prediction: predictive penetration in the CNS from PAMPA-BBB Pe
Experimental: The in vitro permeability (Pe) of the tested compounds and fourteen reference drugs through a lipid extract of porcine brain membrane was assessed by using a parallel artificial membrane permeation assay. Commercial drugs and the target compounds were tested using a mixture of phosphate-buffered saline (PBS): EtOH 70:30. The assay was validated by comparing the experimental permeability with the reported values of the reference drugs.

[5] = system: Bloodstream form T. brucei (strain 221); conditions: read-out: EC50 (T. brucei); comparison drug; cited from earlier work
[6] = system: T. cruzi epimastigotes (CL Brener stain); conditions: read-out: EC50 (T. cruzi); comparison drug; cited from earlier work

| Papp [4] [×10⁻⁶ cm/s] | CNS Prediction [4] | BBB permeation (in words) ([4]; according to the limits of Di et al., low Pe < 1.89, uncertain 5.16 > Pe 10^−6 cm s^−1 > 1.89) | SMILES | PAMPA-BBB permeability (Pe), bibliography value [1] | EC50 [2] [nM] | EC90 [2] [nM] | EC50 [3] [nM] | EC90 [3] [nM] | EC50 (L6 rat myoblast cells) [nM] | EC50 [5] [nM] | EC50 [6] [nM] |
| --- | --- | --- | --- | --- | --- | --- | --- | --- | --- | --- | --- |
| 2.4 | CNS+/- |  | Cc1ccc(-n2c[n+](-c3ccc4ccccc4c3)c(Cc3ccccc3)c2-c2ccc(Cl)cc2)cc1 [Compound 1d] |  | 70 | 90 | 540 ± 80 | 1000 ± 40 | 4090 ± 280 |  |  |
| 4.9 | CNS+/- |  | COc1ccc(-n2c[n+](-c3ccc(OC)cc3)c(Cc3ccccc3)c2-c2ccc(C)cc2)cc1 [Compound 1b] |  | 40 | 50 | 440 ± 10 | 1290 ± 50 | 4600 ± 380 |  |  |
| 4.2 | CNS+/- |  | Cc1ccc(-n2c[n+](C(C)(C)C)c(Cc3ccccc3)c2-c2ccccc2)cc1 [Compound 1a] |  | 180 ± 10 | 280 ± 70 | 1850 ± 290 | 3410 ± 140 | 33900 ± 3300 |  |  |
| 2.6 | CNS+/- |  | COc1ccc(-n2c[n+](C(C)(C)C)c(Cc3ccc(C)cc3)c2-c2ccc(Cl)cc2)cc1 [Compound 1c] |  | 180 ± 10 | 200 ± 10 | 1720 ± 390 | 2980 ± 190 | 9690 ± 580 |  |  |
| 1.6 | CNS- | low BBB permeation | Cc1ccc(-n2c[n+](CC(=O)[O-])c(Cc3ccccc3)c2-c2ccccc2)cc1 [Compound 1e] |  | 5260 ± 10 | 6790 ± 90 | > 20000 | > 20000 | > 130000 |  |  |

Continued, compound first:

| SMILES | Papp [4] [×10⁻⁶ cm/s] | CNS Prediction [4] | BBB permeation (in words) ([4]; according to the limits of Di et al., low Pe < 1.89, uncertain 5.16 > Pe 10^−6 cm s^−1 > 1.89) | PAMPA-BBB permeability (Pe), bibliography value [1] | EC50 [2] [nM] | EC90 [2] [nM] | EC50 [3] [nM] | EC90 [3] [nM] | EC50 (L6 rat myoblast cells) [nM] | EC50 [5] [nM] | EC50 [6] [nM] |
| --- | --- | --- | --- | --- | --- | --- | --- | --- | --- | --- | --- |
| CN/C(=N/CCSCc1nc[nH]c1C)NC#N [Cimetidine] |  |  |  | 0.0 10-6 cm s-1 |  |  |  |  |  |  |  |
| CC1CS(=O)(=O)CCN1/N=C/c1ccc([N+](=O)[O-])o1 (stereo not shown) [nifurtimox] |  |  |  |  |  |  |  |  |  | ~2000 | ~2000 |
| CN1C(C(=O)Nc2ccccn2)=C(O)c2ccccc2S1(=O)=O [Piroxicam, reference compound] | 1.7 ± 0.03 |  |  |  |  |  |  |  |  |  |  |
